In publication PMC11085086, “Microwave-Assisted Atom Transfer Radical Cyclization in the Synthesis of 3,3-Dichloro-γ- and δ-Lactams from N-Alkenyl-Tethered Trichloroacetamides Catalyzed by RuCl2(PPh3)3 and Their Cytotoxic Evaluation” (Molecules, 2024):

Assays:
Type in all cases: cell-based
[1] = Hemolysis assay with human erythrocyte suspension; conditions: human, washed human erythrocyte suspension, PBS pH 7.4, read-out: degree of hemolysis
Procedure: (§1) Human blood samples were obtained from the Banc de Sang i Teixits de Barcelona (Spain) from the Catalan Department of Health. Blood was deposited in tubes with the anticoagulant EDTA-K3. Blood samples were centrifuged at 3000 rpm and 4 °C for 10 min (Megafuge 2.0 R. Heraeus Instruments, Hanau, Germany) to induce sedimentation. Plasma was extracted with a Pasteur pipette. Next, the residual pellet was washed with PBS at pH 7.4. This procedure was repeated three times to remove residual leukocytes and platelets and to concentrate the erythrocytes. Following the last wash, the erythrocyte suspension was diluted (1:1) in PBS at pH 7.4 to obtain a suitable erythrocyte suspension (cell density of 8 × 10^9 cell/mL).
(§2) The hemolysis assay determined the capability of different compounds to induce the hemolysis of the erythrocyte membrane. Stock solutions of each compound at 1 mg/mL in PBS at pH 7.4 were prepared. Different volumes (10–80 μL) were placed in polystyrene tubes, and an aliquot of 25 µL of the erythrocyte suspensions was added to each tube. The final volume was 1 mL. The tubes were incubated at room temperature under rotatory conditions. Then, the tubes were centrifuged at 10,000 rpm for 5 min. The supernatants’ absorbance at 540 nm (Shimadzu UV-160A, Shimadzu, Duisburg, Germany) was compared with that of the positive (erythrocytes hemolyzed with distilled water) and negative (erythrocyte suspension in PBS at pH 7.4.) controls.
(§3) The degree of hemolysis was determined using the following equation:Hemolysis (%) = 100 × (Abs − Abs0)/(Abs100 − Abs0) where Abs, Abs0 and Abs100 are the absorbance of the test samples, of the suspension treated with isotonic phosphate–buffered saline (PBS) and of the suspension of complete hemolysis treated with distilled water, respectively.

human erythrocytes = experiment: Hemolysis assay with human erythrocyte suspension; conditions: 80 µg/mL, PBS pH 7.4
Procedure: as §1, §2, §3

[2] = tested on: murine Swiss albino fibroblasts (3T3); experiment: Cell viability assay, MTT endpoint, 3T3; conditions: Mus musculus, Fibroblast, 3T3, 24 h incubation, 10–250 µg/mL
Procedure: (§4) The murine Swiss albino fibroblasts (3T3), the human breast adenocarcinoma (MCF-7), the human epithelial carcinoma (HeLa) and the squamous cell carcinoma (A431) cell lines were obtained from Celltec UB. Cells were grown in DMEM medium (4.5 g/L glucose) supplemented with 10% (v/v) FBS, 2 mM L-glutamine, 100 U/mL penicillin and 100 µg/mL streptomycin at 37 °C, 5% CO2. Cells were routinely cultured in 75 cm^2 culture flasks and were trypsinized using trypsin–EDTA when the cells reached approximately 80% confluence. The trypan blue assay, which allows for a direct identification and enumeration of the live (unstained) and dead (blue) cells in the cell population, was used to evaluate the viability of the cells in the cell suspension obtained.
(§5) 3T3 (1 × 10^5 cells/mL), A431, HeLa and MCF-7 cells (5 × 10^4 cells/mL) were grown at defined densities in the 60 central wells of a 96-well plate. Cells were incubated for 24 h in 5% CO2 at 37 °C. Then, the spent medium was removed, and cells were incubated for 24 h with their corresponding compound solutions (1 mg/mL) previously diluted in a minimum amount of DMF (dimethylformamide) and then in DMEM medium supplemented with 5% FBS (100 µL) at the required concentration range (10–250 µg/mL). The viability of the cells upon incubation with the lactam derivatives was assayed using 2 different endpoints: NRU and MTT.
(§6) Only living cells can reduce the yellow tetrazolium salt 3-(4,5-dimethyl-2-thiazolyl)-2,5-diphenyltetrazolium bromide (MTT) to insoluble purple formazan crystals. After a 24 h incubation of the cells with their corresponding NPs, the medium was removed and 100 µL of MTT (Sigma-Aldrich, St. Louis, USA) in PBS (5 mg/mL) diluted 1:10 in culture medium without phenol red and without FBS (Lonza, Verviers, Belgium) was added to the cells. After 3 h of incubation, the medium was removed. Thereafter, 100 µL of DMSO (Sigma-Aldrich, St. Louis, MO, USA) was added to each well to dissolve the purple formazan crystals. Agitation and determination of the absorbance of the extracted solution were performed under the same conditions as described in NRU Assay section. Finally, the effect of each treatment was calculated as the percentage of tetrazolium salt’s reduction by viable cells relative to control cells (cells without any treatment).
(§7) The corresponding half-maximal inhibitory concentration (IC50) values for the different formulations as a function of the cell line and endpoint were determined from the fitting of concentration-dependent viability curves. The corresponding selectivity indexes toward tumoral cells were calculated using the following ratio: SI = IC50 (non-tumoral cell line)/IC50 (tumoral cell line) where 3T3 fibroblasts were used as close representative cells under non-tumoral conditions. Moreover, pseudo selectivity indexes toward tumoral cells were calculated considering the discrete cellular responses at the maximum tested concentration (250 µg/mL).

[3] = tested on: squamous cell carcinoma (A431) cell line; experiment: Cell viability assay, MTT endpoint, A431; conditions: for SI250 (selective toxicity at 250 µg/mL): A431 compared to 3T3, 250 µg/mL, 24 h; for IC50: Homo sapiens, A-431, 24 h, A431, 24 h incubation, 10–250 µg/mL
Procedure: as §4, §5, §6, §7

[4] = tested on: human epithelial carcinoma (HeLa) cell line; experiment: Cell viability assay, MTT endpoint, HeLa; conditions: HeLa; for IC50: Homo sapiens, 24 h, 24 h incubation, 10–250 µg/mL
Procedure: as §4, §5, §6, §7

[5] = tested on: human breast adenocarcinoma (MCF-7) cell line; experiment: Cell viability assay, MTT endpoint, MCF-7; conditions: for IC50: Homo sapiens, MCF7, 24 h incubation, 10–250 µg/mL
Procedure: as §4, §5, §6, §7

[6] = tested on: murine Swiss albino fibroblasts (3T3); experiment: Cell viability assay, NRU endpoint, 3T3; conditions: Mus musculus, Fibroblast, 3T3, 24 h incubation, 10–250 µg/mL
Procedure: as §4, §5
(§8) The neutral red uptake (NRU) assay is based on the accumulation of dye in the lysosomes of viable cells. After the cells were incubated for 24 h with the corresponding systems, the medium was removed, and the solutions were incubated with the NR dye (Sigma-Aldrich, St. Louis, MO, USA) solution (50 µg/mL) dissolved in the medium, without FBS and without phenol red (Lonza, Verviers, Belgium), for 3 h. Cells were then washed with sterile PBS, followed by the addition of 100 µL of a solution containing 50% absolute ethanol and 1% acetic acid in distilled water to extract the dye. To promote the total dissolution of the dye, plates were placed in a microtiter-plate shaker for 5 min at room temperature. The absorbance of the resulting solutions was measured at 550 nm (Bio-Rad 550 microplate reader, Bio-Rad California, Hercules, CA, USA). Finally, the effect of each treatment was calculated as the percentage of dye uptake by viable cells relative to the control cells (cells without any treatment).
as §7

[7] = tested on: squamous cell carcinoma (A431) cell line; experiment: Cell viability assay, NRU endpoint, A431; conditions: for IC50: Homo sapiens, A-431, 24 h, A431, 24 h incubation, 10–250 µg/mL; for SI250 (selective toxicity at 250 µg/mL): A431 compared to 3T3, 250 µg/mL, 24 h
Procedure: as §4, §5, §8, §7

[8] = tested on: human epithelial carcinoma (HeLa) cell line; experiment: Cell viability assay, NRU endpoint, HeLa; conditions: 24 h incubation, 10–250 µg/mL
Procedure: as §4, §5, §8, §7

[9] = tested on: human breast adenocarcinoma (MCF-7) cell line; experiment: Cell viability assay, NRU endpoint, MCF-7; conditions: for IC50: Homo sapiens, MCF7, 24 h incubation, 10–250 µg/mL; for SI250 (selective toxicity at 250 µg/mL): MCF-7 compared to 3T3, 250 µg/mL, 24 h
Procedure: as §4, §5, §8, §7

[10] = Cell viability assay, MTT endpoint, cell line not specified; conditions: under discrete conditions, up to 250 µg/mL, read-out: minimum cell viability values
Procedure: as §4
3T3 (1 × 10^5 cells/mL), A431, HeLa and MCF-7 cells (5 × 10^4 cells/mL) were grown at defined densities in the 60 central wells of a 96-well plate. […]
Only living cells can reduce the yellow tetrazolium salt 3-(4,5-dimethyl-2-thiazolyl)-2,5-diphenyltetrazolium bromide (MTT) to insoluble purple formazan crystals. […] Agitation and determination of the absorbance of the extracted solution were performed under the same conditions as described in NRU Assay section. Finally, the effect of each treatment was calculated as the percentage of tetrazolium salt’s reduction by viable cells relative to control cells (cells without any treatment).

[11] = Cell viability assay, NRU endpoint, cell line not specified; conditions: up to 250 µg/mL, read-out: minimum cell viability values
Procedure: as §4, §5, §8

[12] = Cell viability assay, MTT endpoint, A431; conditions: human, A431 squamous cell carcinoma cells, A431, highest assayed concentration 250 µg/mL, 24 h
Procedure: as §4, §5, §6, §7

| IC50 [3] [µg/mL] | IC50 [4] [µg/mL] | IC50 ([5]; MTT) [µg/mL] | IC50 [7] [µg/mL] | IC50 [8] [µg/mL] | IC50 [9] [µg/mL] | SMILES | hemolysis at 10 µg/mL [1] [%] | degree of hemolysis (human erythrocytes) | IC50 [2] [µg/mL] | SI250 (selective toxicity at 250 µg/mL) [3] | IC50 [6] [µg/mL] | viability at 24 h [10] [%] | viability at 24 h [11] [%] | hemolysis at 80 µg/mL [1] [%] | viability at 24 h, 250 µg/mL [12] [%] | SI250 (selective toxicity at 250 µg/mL) [9] | SI250 (selective toxicity at 250 µg/mL) ([5]; MTT, MCF-7 compared to 3T3, 250 µg/mL, 24 h) | SI250 (selective toxicity at 250 µg/mL) [7] | effect on proliferation of tumor cells ([4]; under the assayed conditions) | effect on proliferation of tumor cells ([5]; MCF-7, MTT, under the assayed conditions) |
| --- | --- | --- | --- | --- | --- | --- | --- | --- | --- | --- | --- | --- | --- | --- | --- | --- | --- | --- | --- | --- |
| – | > 250 | > 250 | > 250 | > 250 | > 250 | O=C1N(c2ccccc2)CC(CCl)C1(Cl)Cl (stereo not drawn) [2d, 3,3-Dichloro-4-(chloromethyl)-1-phenylpyrrolidin-2-one] | 0.005 | – | > 250 | 1.4 | > 250 | – | 80 to 85 | 0.1 | 50 | one | – | – | – | – |
| > 250 | > 250 | > 250 | > 250 | > 250 | > 250 | CC(C)(C)N1CCC(CCl)C(Cl)(Cl)C1=O (stereo not drawn) [2i, 1-(tert-Butyl)-3,3-dichloro-4-(chloromethyl)piperidin-2-one] | 0.003 | – | > 250 | 1.1 | > 250 | – | 70 | ~0.07 | – | one | one | 1.1 | – | – |
| > 250 | > 250 | > 250 | > 250 | > 250 | > 250 | O=C1CCC(N2CC(CCl)C(Cl)(Cl)C2=O)CC1 (stereo not drawn) [2p] | 0.005 | – | > 250 | – | > 250 | 60 to 70 | 100 | ~0.07 | – | one | – | 1.1 | could promote the proliferation | could promote the proliferation |

| SMILES | IC50 [3] [µg/mL] | IC50 [4] [µg/mL] | IC50 ([5]; MTT) [µg/mL] | IC50 [7] [µg/mL] | IC50 [8] [µg/mL] | IC50 [9] [µg/mL] | hemolysis at 10 µg/mL [1] [%] | degree of hemolysis (human erythrocytes) | IC50 [2] [µg/mL] | SI250 (selective toxicity at 250 µg/mL) [3] | IC50 [6] [µg/mL] | viability at 24 h [10] [%] | viability at 24 h [11] [%] | hemolysis at 80 µg/mL [1] [%] | viability at 24 h, 250 µg/mL [12] [%] | SI250 (selective toxicity at 250 µg/mL) [9] | SI250 (selective toxicity at 250 µg/mL) ([5]; MTT, MCF-7 compared to 3T3, 250 µg/mL, 24 h) | SI250 (selective toxicity at 250 µg/mL) [7] | effect on proliferation of tumor cells ([4]; under the assayed conditions) | effect on proliferation of tumor cells ([5]; MCF-7, MTT, under the assayed conditions) |
| --- | --- | --- | --- | --- | --- | --- | --- | --- | --- | --- | --- | --- | --- | --- | --- | --- | --- | --- | --- | --- |
| O=C1NCC(CCl)C1(Cl)Cl (stereo not drawn) [2b, 3,3-Dichloro-4-(chloromethyl)pyrrolidin-2-one] | > 250 | > 250 | > 250 | > 250 | > 250 | > 250 | 0.02 | remained stable | > 250 | 1.1 | > 250 | 60 to 70 | 80 to 85 | – | – | – | – | – | – | – |
